# Target: T1, human orexin type 2 receptor (Homo sapiens, UniProt O43614)
# T1 construct: expressed in transfected cells
# T1 sequence (O43614 1-444): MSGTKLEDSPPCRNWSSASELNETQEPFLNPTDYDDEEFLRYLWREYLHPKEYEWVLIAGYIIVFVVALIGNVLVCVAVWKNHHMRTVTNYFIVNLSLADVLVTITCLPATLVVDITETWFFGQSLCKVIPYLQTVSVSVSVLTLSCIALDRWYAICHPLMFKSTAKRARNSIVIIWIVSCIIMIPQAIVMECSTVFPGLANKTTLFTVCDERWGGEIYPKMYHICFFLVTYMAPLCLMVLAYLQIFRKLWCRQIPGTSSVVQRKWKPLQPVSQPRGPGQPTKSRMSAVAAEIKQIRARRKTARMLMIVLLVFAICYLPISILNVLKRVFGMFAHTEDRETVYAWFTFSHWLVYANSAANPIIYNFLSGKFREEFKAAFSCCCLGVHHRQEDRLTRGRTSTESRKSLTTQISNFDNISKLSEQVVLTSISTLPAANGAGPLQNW
# Test: Measurement of orexin type 2 receptor agonist activity (calcium indicator fluorescence, CHO cells forcibly expressing human OX2 receptor)
# Format: cell-based
# Details: compound at 3 μM; 0% = DMSO, 100% = orexin A (human) 10 nM
# Outline: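 Agonist response normalised between vehicle (0%) and orexin A at 10 nM final (100%), from kinetic Fluo-4 calcium signals recorded for about 2 min after compound addition. Cells: stable human OX2R CHO clone, dye-loaded 30 min at 37 °C plus 30 min at room temperature.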
row,"OX2R agonist activity (3 μM, %)",SMILES
1,90%,"CCS(=O)(=O)N[C@@H]1[C@H](Cc2cccc(-c3cccc(F)c3F)c2)N(C(=O)C2CCO2)CC1(F)F (stereo partly drawn) [Example 174, N -[(2S,3R)-2-[(2′,3′-difluoro[1,1′-biphenyl]-3-yl)methyl]-4,4-difluoro-1-(oxetane-2-carbonyl)pyrrolidin-3-yl]ethanesulfonamide]"
2,97%,"CCS(=O)(=O)N[C@@H]1[C@H](Cc2cccc(-c3cccc(C(F)F)c3)c2F)N(C(=O)C(C)C)CC1(F)F [Example 507, N-[(2S,3R)-2-{[3′-(difluoromethyl)-2-fluoro[1,1′-biphenyl]-3-yl]methyl}-4,4-difluoro-1-(2-methylpropanoyl)pyrrolidin-3-yl]ethanesulfonamide]"
3,96%,"CN(C)C(=O)N1CC(F)(F)[C@H](NS(=O)(=O)N(C)C)[C@@H]1Cc1cccc(-c2cc(F)cc(F)c2)c1F [Example 532, (2S,3R)-3-[(dimethylsulfamoyl)amino]-4,4-difluoro-N,N-dimethyl-2-[(2,3′,5′-trifluoro[1,1′-biphenyl]-3-yl)methyl]pyrrolidine-1-carboxamide]"
4,93%,"CN(C)S(=O)(=O)N[C@@H]1[C@H](Cc2cccc(-c3ccccc3)c2F)N(C(=O)N2CCC2)CC1(F)F [Example 139, N′-{(2S,3R)-1-(azetidine-1-carbonyl)-4,4-difluoro-2-[(2-fluoro[1,1′-biphenyl]-3-yl)methyl]pyrrolidin-3-yl}-N,N-dimethylsulfuric diamine]"
5,102%,"CCS(=O)(=O)N[C@@H]1[C@H](Cc2cccc(-c3ccc(F)c(F)c3)c2F)N(C(=O)C2CCO2)CC1(F)F (stereo partly drawn) [Example 468, N-{(2S,3R)-4,4-difluoro-1-(oxetane-2-carbonyl)-2-[(2,3′,4′-trifluoro[1,1′-biphenyl]-3-yl)methyl]pyrrolidin-3-yl}ethanesulfonamide]"
6,88%,"CCS(=O)(=O)N[C@@H]1[C@H](Cc2cccc(-c3cc(F)cc(F)c3)c2F)N(C(=O)C2(O)CCC2)CC1(F)F [Example 272, N-{(2S,3R)-4,4-difluoro-1-(1-hydroxycyclobutane-1-carbonyl)-2-[(2,3′,5′-trifluoro[1,1′-biphenyl]-3-yl)methyl]pyrrolidin-3-yl}ethanesulfonamide]"
7,97%,"Cc1cccc(-c2cccc(C[C@H]3[C@@H](NS(=O)(=O)C4CC4)C(F)(F)CN3C(=O)N(C)C)c2F)c1F [Example 521, (2S,3R)-3-[(cyclopropanesulfonyl)amino]-2-[(2,2′-difluoro-3′-methyl[1,1′-biphenyl]-3 yl)methyl]-4,4-difluoro-N,N-dimethylpyrrolidine-1-carboxamide]"
8,85%,"CCS(=O)(=O)N[C@@H]1[C@H](Cc2cccc(-c3cccc(C(F)F)c3)c2F)N(C(=O)C23CC(C2)C3)CC1(F)F [Example 509, N-[(2S,3R)-1-(bicyclo[1.1.1]pentane-1-carbonyl)-2-{[3′-(difluoromethyl)-2-fluoro[1,1′-biphenyl]-3-yl]methyl}-4,4-difluoropyrrolidin-3-yl]ethanesulfonamide]"
9,100%,"CCS(=O)(=O)N[C@@H]1[C@H](Cc2cccc(-c3cccc(F)c3)c2)N(C(=O)C2CCO2)CC1(F)F (stereo partly drawn) [Example 52, N-[(2S,3R)-4,4-difluoro-2-[(3′-fluoro[1,1′-biphenyl]-3-yl)methyl]-1-(oxetane-2-carbonyl)pyrrolidin-3-yl]ethanesulfonamide]"
10,94%,"CCS(=O)(=O)N[C@@H]1[C@H](Cc2cccc(-c3cccc(OC(F)F)c3)c2F)N(C(=O)C(C)C)CC1(F)F [Example 549, N-[(2S,3R)-2-{[3′-(difluoromethoxy)-2-fluoro[1,1′-biphenyl]-3-yl]methyl}-4,4-difluoro-1-(2-methylpropanoyl)pyrrolidin-3-yl]ethanesulfonamide]"
11,100%,"CN(C)S(=O)(=O)N[C@@H]1[C@H](Cc2cccc(-c3cccc(F)c3)c2F)N(C(=O)[C@H]2CCO2)CC1(F)F [Example 541, N′-{(2S,3R)-2-[(2,3′-difluoro[1,1′-biphenyl]-3-yl)methyl]-4,4-difluoro-1-[(2R)-oxetane-2-carbonyl]pyrrolidin-3-yl}-N,N-dimethylsulfuric diamide]"
12,84%,"CN(C)S(=O)(=O)N[C@H]1[C@@H](F)CN(C(=O)N2CCC2)[C@H]1Cc1cccc(-c2cc(F)cc(F)c2)c1F [Example 458, N′-{(2S,3R,4S)-1-(azetidine-1-carbonyl)-4-fluoro-2-[(2,3′,5′-trifluoro[1,1′-biphenyl]-3-yl)methyl]pyrrolidin-3-yl}-N,N-dimethylsulfuric diamide]"

# Further lines, the compound ahead of its results:
row,SMILES,"OX2R agonist activity (3 μM, %)"
1,"CCS(=O)(=O)N[C@H]1[C@@H](F)CN(C(=O)C23CC(C2)C3)[C@H]1Cc1cccc(-c2cccc(F)c2F)c1F [Example 366, N-{(2S,3R,4S)-1-(bicyclo[1.1.1]pentane-1-carbonyl)-4-fluoro-2-[(2,2′,3′-trifluoro[1,1′-biphenyl]-3-yl)methyl]pyrrolidin-3-yl}ethanesulfonamdie]",96%
2,"Cc1cc(F)cc(-c2cccc(C[C@H]3[C@@H](NS(=O)(=O)C4CC4)[C@@H](F)CN3C(=O)C3CCO3)c2F)c1 (stereo partly drawn) [Example 491, N-[(2S,3R,4S)-2-[(2,3′-difluoro-5′-methyl[1,1′-biphenyl]-3-yl)methyl]-4-fluoro-1-(oxetane-2-carbonyl)pyrrolidin-3-yl]cyclopropanesulfonamide]",93%
3,"CC(C)(O)C(=O)N1C[C@H](F)[C@H](NS(=O)(=O)C2CC2)[C@@H]1Cc1cccc(-c2cccc(F)c2)c1F [Example 369, N-[(2S,3R,4S)-2-[(2,3′-difluoro[1,1′-biphenyl]-3-yl)methyl]-4-fluoro-1-(2-hydroxy-2-methylpropanoyl)pyrrolidin-3-yl]cyclopropanesulfonamide]",85%
4,"O=C(C1CCO1)N1C[C@H](F)[C@H](NS(=O)(=O)C2CC2)[C@@H]1Cc1cccc(-c2cccc(F)c2F)c1F (stereo partly drawn) [Example 494, N-{(2S,3R,4S)-4-fluoro-1-(oxetane-2-carbonyl)-2-[(2,2′,3′-trifluoro[1,1′-biphenyl]-3-yl)methyl]pyrrolidin-3-yl}cyclopropanesulfonamide]",96%
5,"O=C(C1CCO1)N1C[C@H](F)[C@H](NS(=O)(=O)C2CC2)[C@@H]1Cc1cccc(-c2cccc(F)c2F)c1F (stereo partly drawn) [Example 480, N-{(2S,3R,4S)-4-fluoro-1-(oxetane-2-carbonyl)-2-[(2,2′,3′-trifluoro[1,1′-biphenyl]-3-yl)methyl]pyrrolidin-3-yl}cyclopropanesulfonamide]",101%
6,"CCS(=O)(=O)N[C@H]1[C@@H](F)CN(C(=O)N(C)C)[C@H]1Cc1cccc(-c2cc(F)ccc2F)c1F [Example 294, (2S,3R,4S)-3-[(ethanesulfonyl)amino]-4-fluoro-N,N-dimethyl-2-[(2,2′,5′-trifluoro[1,1′-biphenyl]-3-yl)methyl]pyrrolidine-1-carboxamide]",96%
7,"CS(=O)(=O)N[C@H]1[C@@H](F)CN(C(=O)C2CCO2)[C@H]1Cc1cccc(-c2cc(F)cc(F)c2)c1F (stereo partly drawn) [Example 324, N-{(2S,3R,4S)-4-fluoro-1-(oxetane-3-2-carbonyl)-2-[(2,3′,5′-trifluoro[1,1′-biphenyl]-3-yl)methyl]pyrrolidin-3-yl}methanesulfonamide]",91%
8,"O=C(C1CC1)N1C[C@H](F)[C@H](NS(=O)(=O)C2CC2)[C@@H]1Cc1cccc(-c2cccc(F)c2)c1F [Example 372, N-{(2S,3R,4S)-1-(cyclopropanecarbonyl)-2-[(2,3′-difluoro[1,1′-biphenyl]-3-yl)methyl]-4-fluoropyrrolidin-3-yl}cycloproapnesulfonamide]",89%
9,"CCS(=O)(=O)N[C@H]1[C@@H](F)CN(C(=O)C2CC2)[C@H]1Cc1cccc(-c2cccc(F)c2)c1F [Example 212, N-{(2S,3R,4S)-1-(cyclopropanecarbonyl)-2-[(2,3′-difluoro[1,1′-biphenyl]-3-yl)methyl]-4-fluoropyrrolidin-3-yl}ethanesulfonamide]",96%
10,"CCS(=O)(=O)N[C@H]1[C@@H](F)CN(C(=O)[C@H]2CCCO2)[C@H]1Cc1cccc(-c2cc(F)cc(F)c2)c1F [Example 414, N-{(2S,3R,4S)-4-fluoro-1-[(2R)-oxolane-2-carbonyl]-2-[(2,3′,5′-trifluoro[1,1′-biphenyl]-3-yl)methyl]pyrrolidin-3-yl}ethanesulfonamide]",95%
11,"CCS(=O)(=O)N[C@H]1[C@@H](F)CN(C(=O)C2CCO2)[C@H]1Cc1cccc(-c2cc(F)cc(F)c2)c1F (stereo partly drawn) [Example 304, N-{(2S,3R,4S)-4-fluoro-1-(oxetane-2-carbonyl)-2-[(2,3′,5′-trifluoro[1,1′-biphenyl]-3-yl)methyl]pyrrolidin-3-yl}ethanesulfonamide]",99%
12,"CC(C)(O)C(=O)N1C[C@H](F)[C@H](NS(C)(=O)=O)[C@@H]1Cc1cccc(-c2cccc(Cl)c2F)c1F [Example 389, N-[(2S,3R,4S)-2-[(3′-chloro-2,2′-difluoro[1,1′-biphenyl]-3-yl)methyl]-4-fluoro-1-(2-hydroxy-2-methylpropanoyl)pyrrolidin-3-yl]methanesulfonamide]",89%

# — US20230040770A1, “HETEROCYCLIC COMPOUND AND USE THEREOF” (TAKEDA PHARMACEUTICAL COMPANY LIMITED, priority 2019, published 2023)
